Reference: US20060167115A1, “Compositions for the preservation of timber” (priority 2003, published 2006)

System: wood decay
Assay: Wood decay field stake test (modified AWPA E7-01), ground contact
Details: TBBA added to ethanol, over all concentrations; groups of 10 stakes; seven months in ground
Description: The preservative value of TBBA in terms of preventing wood decay was examined by ground contact exposure of TBBA treated stakes at a test plot in Gainesville, Fla. The test detail was essentially based on the “STANDARD METHOD OF EVALUATING WOOD PRESERVATIVES BY FIELD TESTS WITH STAKES”, Standard E7-01, promulgated by the American Wood Preservers Association (AWPA).
All the test stakes were of southern pine sapwood and were vacuum impregnated with TBBA. The TBBA was dissolved in one of four solutions: ethanol, P9 type A oil, and in two micro-emulsions: • emulsion #1: TBBA 20.81%, Butyl Lactate 31.02%, NP-15 22.33% and water 25.83% • emulsion #2: TBBA 20.05%, Butyl Lactate 29.88%, NP-15 21.51% and water 28.55%
Each of the emulsions was diluted so that the corresponding concentration (w/v) of TBBA in all of the solutions was: 1.72%, 3.4%, 5.1%, 6.8% and 8.5%.
Two groups of control stakes were also installed in the test plot. One group was vacuum impregnated with pure ethanol. The second group was untreated.
The groups of stakes for each treatment were installed in the test plot, left for seven months, and evaluated according to the procedure set-out in AWPA Standard E7-01. […]

For `CC(C)(c1cc(Br)c(O)c(Br)c1)c1cc(Br)c(O)c(Br)c1` [TBBA, Tetrabromobisphenol A], the “Instances of Grade No. 10 (count per group)” value was 8-10.
